Test results published in patent US10800790B2, “Sesquiterpenoid STAT3 inhibitors” (University of Hawaii, priority 2013, dated 2020).
Entries after “also recorded” stand apart in the source; their conditions may differ. Like-named read-outs stand apart in the source and are kept apart here.

Tests used:
[1] = test system: pY705STAT3 in U251MG or MDA-MB-231 cells; experiment: Immunoblotting of pY705STAT3 in treated tumor cells; details: 5 micromolar, U251MG or MDA-MB-231; for Effect on pY705STAT3 / STAT3 activity (immunoblot), in words: 0-24 h, Table 1/FIG. 2 numbering
Protocol: Positions of STATs:DNA complexes or proteins in gel are labeled; control lanes (0) represent nuclear extracts or whole-cell lysates prepared from 0.05% DMSO-treated cells. Data are representative of at least three to four independent determinations.
Lysates of equal total protein prepared in the lysis buffer (50 mM Hepes, pH 7.5, 150 mM NaCl, 2 mM EDTA, 1% Triton X-100, 0.1% SDS), were subjected to IP or Western blotting analysis. Antibodies against STAT3, pY705STAT3, Src, pY416Src, Erk1/2, and pT202/Y204Erk1/2 and GAPDH (Cell Signaling Technology, Danvers, Mass.), and anti-β-actin, and HSP105 (Santa Cruz Biotechnology, Dallas, Tex.) are from the designated sources.
Whole-cell lysates were prepared in boiling SDS sample loading buffer to extract total proteins, as reported previously. […] Nitrocellulose membranes were probed with primary antibodies, and the detection of horseradish peroxidase-conjugated secondary antibodies by enhanced chemiluminescence (Amersham) was performed. Antibodies used were monoclonal anti-pYSTAT3 and anti-STAT3 antibodies (Cell Signaling Technology, Danvers, Mass.).

[2] = target: T1, STAT3 (NIH3T3/v-Src nuclear extracts) (Mus musculus, UniProt P42227); experiment: In vitro STAT3 DNA-binding activity/EMSA, nuclear extracts incubated with compound; assay type: biochemical; details: 5 micromolar, 30 min at room temperature
T1 construct: nuclear extracts prepared from v-Src-transformed mouse fibroblasts (NIH3T3/v-Src) containing active STAT3; endogenous in cells; host or cells: NIH3T3/v-Src mouse fibroblasts (nuclear extract)
T1 sequence (P42227 whole entry): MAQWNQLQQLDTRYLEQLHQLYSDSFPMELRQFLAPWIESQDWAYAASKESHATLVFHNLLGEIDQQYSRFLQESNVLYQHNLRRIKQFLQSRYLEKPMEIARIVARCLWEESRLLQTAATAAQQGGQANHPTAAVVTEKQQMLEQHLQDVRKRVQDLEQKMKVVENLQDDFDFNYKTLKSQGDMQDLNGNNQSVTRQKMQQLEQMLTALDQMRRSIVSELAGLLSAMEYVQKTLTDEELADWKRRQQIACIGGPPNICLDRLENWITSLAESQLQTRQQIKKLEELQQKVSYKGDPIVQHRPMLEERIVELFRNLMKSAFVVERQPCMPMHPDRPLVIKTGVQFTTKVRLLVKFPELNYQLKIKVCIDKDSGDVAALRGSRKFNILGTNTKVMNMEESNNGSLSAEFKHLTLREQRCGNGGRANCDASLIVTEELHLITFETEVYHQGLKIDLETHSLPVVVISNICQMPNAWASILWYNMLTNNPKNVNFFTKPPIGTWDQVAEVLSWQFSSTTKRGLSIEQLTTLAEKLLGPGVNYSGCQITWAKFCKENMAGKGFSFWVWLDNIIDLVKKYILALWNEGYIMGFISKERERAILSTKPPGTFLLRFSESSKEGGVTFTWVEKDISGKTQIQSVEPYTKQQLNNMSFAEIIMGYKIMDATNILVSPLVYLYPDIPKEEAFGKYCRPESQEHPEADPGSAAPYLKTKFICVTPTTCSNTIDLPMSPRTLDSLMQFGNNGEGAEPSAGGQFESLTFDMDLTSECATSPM
Protocol: To further determine the effects of the bioactive agents on STAT3 activity, nuclear extracts prepared from v-Src-transformed mouse fibroblasts (NIH3T3/v-Src) containing active STAT3 were directly incubated with 5 micromolar compounds for 30 min at room temperature prior to performing STAT3 DNA-binding activity in vitro with EMSA analysis. […] These studies indicate that agents directly interact with STAT3 and disrupt STAT3:STAT3 dimers, thereby inhibiting its DNA-binding activity.
Data are representative of 2-3 independent determinations.
Nuclear extract preparations and DNA-binding/electrophoretic mobility shift assay (EMSA) were carried out as previously described (Xu, supra). Nuclear extract preparations and DNA-binding activity/electrophoretic mobility shift assay (EMSA) were carried out as previously described. U251 MG and MDA-MB-231 cells culture were pretreated with different concentrations of the compounds for the indicated period and then harvested for nuclear extract preparation and DNA-binding assay with EMSA analysis. The ^32P-labeled oligonucleotide probe used was hSIE (high-affinity sis-inducible element) from the c-fos gene, m67 variant (5′-[…]-3′) that binds STAT3. Except where indicated, nuclear extracts were pre-incubated with compound for 30 min at room temperature prior to incubation with the radiolabeled probe for 30 min at 30° C. before subjecting to EMSA analysis. Where appropriate, bands corresponding to DNA-binding activities were scanned and quantified for each concentration of compound using ImageJ and plotted as percent of control (vehicle) against concentration of compound, from which the IC50 values were derived.

[3] = test system: U251MG glioblastoma cells; experiment: CyQuant cell viability/proliferation assay, U251MG; assay type: cell-based, human; parameters: key to Activity against U251: +, active; −, no activity; +/−, poorly active; details: for Activity against U251: Table 1 grade, Table 1/FIG. 2 compound numbering; for Activity against the cell lines, in words: tested at 5 micromolar; for Cell-type selectivity of growth inhibition, in words: U251MG versus other cells incl. NIH3T3
Protocol: (§1) The cell viability assay was performed as previously reported (Zhang X, et al. (2010)). Briefly, a 10 millimolar concentration stock solution in dimethylsulfoxide (DMSO) of the tested molecule was first prepared. Next, the stock solution was diluted down to various working solutions in water. Thus, a formulation of the tested compound in a DMSO/water mixture was used to test for cell viability. (A novel small-molecule disrupts STAT3 SH2 domainphosphotyrosine interactions and STAT3-dependent tumor processes, Biochem Pharmacol 79:1398-1409; Zhao W, Jaganathan S, & Turkson J (2010), A cell-permeable STAT3 SH2 domain mimetic inhibits STAT3 activation and induces antitumor cell effects in vitro. J Biol Chem. 285:35855-35865). Cells (U251MG, MDA-MB-231 or NIH3T3) were obtained from ATCC (Manassas, Va.) and were cultured in 96-well plates at 2,000 cells per well for 24 h and were treated with compounds (5 micromolar concentration) for 72 h. Cell viabilty was determined using CyQuant assay, according to the manufacturer's (Invitrogen, CA, USA) instructions. Relative viability of the treated cells was normalized to the DMSO-treated control cells.

Stat3 = Stat3 (Homo sapiens, UniProt P40763); experiment: Activity against Stat3 (Table 1 grade); assay type: biochemical; parameters: key: +, active; −, no activity; +/−, poorly active; details: Table 1/FIG. 2 compound numbering
Sequence of Stat3 (P40763 whole entry, species assumed): as the sequence (P42227 whole entry) above, with D760E counted along it

[4] = test system: STAT3 DNA-binding activity; experiment: STAT3 DNA-binding activity (EMSA) of nuclear extracts from treated tumor cells; details: 5 micromolar, time course
Protocol: Positions of STATs:DNA complexes or proteins in gel are labeled; control lanes (0) represent nuclear extracts or whole-cell lysates prepared from 0.05% DMSO-treated cells.
Nuclear extract preparations and DNA-binding/electrophoretic mobility shift assay (EMSA) were carried out as previously described (Xu, supra). Nuclear extract preparations and DNA-binding activity/electrophoretic mobility shift assay (EMSA) were carried out as previously described. U251 MG and MDA-MB-231 cells culture were pretreated with different concentrations of the compounds for the indicated period and then harvested for nuclear extract preparation and DNA-binding assay with EMSA analysis. […] Except where indicated, nuclear extracts were pre-incubated with compound for 30 min at room temperature prior to incubation with the radiolabeled probe for 30 min at 30° C. before subjecting to EMSA analysis.

[5] = test system: normal NIH3T3 mouse fibroblasts; experiment: CyQuant cell viability/proliferation assay, NIH3T3; assay type: cell-based; parameters: key to Activity against 3T3: +, active; −, no activity; +/−, poorly active
Protocol: as §1

[6] = test system: MDA-MB-231 breast cancer cells; experiment: CyQuant cell viability/proliferation assay, MDA-MB-231; assay type: cell-based, human; parameters: key to Activity against 231: +, active; −, no activity; +/−, poorly active
Protocol: as §1

[7] = test system: GSH levels in U251 MG cells; experiment: Glutathione (GSH) levels in U251 MG cells
Protocol: Reduced glutathione (GSH) and oxidized glutathione disulfide (GSSG) levels were assayed using a commercially available kit (Cayman Chemical, Ann Arbor, Mich.) and following the manufacturer's instructions.

[8] = test system: STAT3 tyrosine phosphorylation; details: Butturini et al. 2011; cited from earlier work
[9] = test system: intracellular glutathione; details: literature reports, cited from earlier work
[10] = Table 1 grade, Table 1/FIG. 2 compound numbering

For `C=C(C)C(=O)OC1CC(C)C2(O)CCC(C)(C=C3OC(=O)C(CO)=C31)O2` (stereo not shown) [Compound 18], the “Effect on pY705STAT3 / STAT3 activity (immunoblot), in words” value (“Effect on pY705STAT3 / STAT3 activity” for short) [1] was “little effects on pY705STAT3”, the “Inhibition of STAT3 DNA-binding activity in vitro (EMSA)” value (“Inhibition … in vitro (EMSA)” below) [2] was “moderate to no effect” and the “Activity against U251” value [3] was “+/−”. The “Activity against the cell lines, in words” value ([3]; Table 1/FIG. 2 numbering) was “moderate to weak activity” and the “Activity against Stat3” value (Stat3) was “−”.
In the case of `CC=C(C)C(=O)OC1CC(C)C2(O)CCC(C)(C=C3OC(=O)C(CO)=C31)O2` (stereo not shown) [Compound 19], the “Effect on pY705STAT3 / STAT3 activity” value [1] is reported as “little effects on pY705STAT3”, the “Inhibition … in vitro (EMSA)” value [2] is reported as “moderate to no effect” and the “Activity against U251” value [3] is reported as “−”. For the same compound, the “Activity against the cell lines, in words” value ([3]; Table 1/FIG. 2 numbering) was “moderate to weak activity” and the “Activity against Stat3” value (Stat3) was “−”.
For `CC=C(C)C(=O)OC1CC(C)C2(O)CCC(C)(C=C3OC(=O)C(COC(C)=O)=C31)O2` (stereo not shown) [Compound 20], the “Effect on pY705STAT3 / STAT3 activity” value [1] was “early inhibition at 15-30 min”, the “Inhibition … in vitro (EMSA)” value [2] was “strong inhibition” and the IC50 ([3]; 72-h treatment, Table 1/FIG. 2 numbering, read-out: IC50 for the inhibition of U251MG cell viability) was 4.3 µM. For the same compound, the “Cell-type selectivity of growth inhibition, in words” value ([3]; Table 1/FIG. 2 numbering) was “selective against the growth of human glioma U251MG cells”, the “Inhibition of STAT3 DNA-binding activity in treated cells (EMSA)” value [4] was “early inhibition at 15-30 min” and the “Activity against Stat3” value (Stat3) was “+”. For the same compound, the “Activity against 3T3” value [5, 10] was “+/−” and the “Activity against 231” value [6, 10] was “+”.
With `C=C(C)C(=O)OC1CC(C)C2(OC)CCC(C)(C=C3OC(=O)C(CO)=C31)O2` (stereo not shown) [Compound 28] the “Effect on pY705STAT3 / STAT3 activity” value [1] was “little effects on pY705STAT3”, the “Inhibition … in vitro (EMSA)” value [2] was “moderate to no effect” and the “Activity against U251” value [3] was “−”. For the same compound, the “Activity against the cell lines, in words” value ([3]; Table 1/FIG. 2 numbering) was “moderate to weak activity” and the “Activity against Stat3” value (Stat3) was “−”.
For `C=C1C(=O)O[C@@H]2/C=C(\C)CC/C=C(\C)CC[C@@H]12` [costunolide, reference compound], the “Effect on pY705STAT3 / STAT3 activity” value ([1]; listed as costinulide) was “little effect on STAT3 activity; also recorded: minimal effects on pY705STAT3”, the “Inhibition of pY705STAT3 (immunoblot), in words” value ([1]; Table 3 numbering (isolates 1-16)) was “negligible or weak” and the “Effect on GSH levels” value [7] was “suppressed GSH levels”. For the same compound, the inhibition at 5 µM ([3]; Homo sapiens, U-251, at 5 μM, 72 h, Table 3 numbering (isolates 1-16)) was 17.5%, the “Cell-type selectivity of growth inhibition, in words” value ([3]; Table 1/FIG. 2 numbering) was “generally toxic to U251MG and normal NIH3T3” and the “Cell-type selectivity of growth inhibition, in words” value ([3]; Table 1/FIG. 2 numbering, listed as costinulide) was “non-specfically active against glioma U251MG and normal NIH3T3 mouse fibroblasts”. The inhibition at 5 µM ([5]; Mus musculus, NIH3T3, at 5 μM, 72 h, Table 3 numbering (isolates 1-16), read-out: NIH-3T3 % inhibition) was 41.6%, the “Tyrosine-phosphorylation of STAT3 in cells treated with IL-6” value (shortened to “Tyrosine-phosphorylation of STAT3”) [8] was “inhibited the tyrosine-phosphorylation of STAT3” and the inhibition at 5 µM ([6]; Homo sapiens, MDA-MB-231, at 5 μM, 72 h, Table 3 numbering (isolates 1-16)) was 10.5%. The Intracellular glutathione content [9] was “rapid drop in intracellular glutathione content” and the Intracellular glutathione content ([9]; listed as costinulide) was “suppress the intracellular glutathione (GSH) pool”.
For `C=C1CC[C@H]2C(=C)CC[C@H]3C(=C)C(=O)O[C@@H]3[C@@H]12` [dehydrocostuslactone], the “Tyrosine-phosphorylation of STAT3” value [8] is given as “inhibited the tyrosine-phosphorylation of STAT3” and the Intracellular glutathione content [9] is given as “rapid drop in intracellular glutathione content”.
For `C/C1=C\[C@H]2OC(=O)[C@@H](C)[C@@H]2CC/C(C)=C/CC1` [dihydrocostunolide], the “Tyrosine-phosphorylation of STAT3” value [8] is listed as “failed to exert inhibitory action toward STAT3 tyrosine phosphorylation”.
